The target in assay [1] is T1, CYC domain of XC_0250 (CYCHis6) (Xanthomonas campestris, UniProt Q8PDU5).
T1 construct: gene XCC0240; single band of 21 kDa
As to the kind of experiment: guanylyl cyclase assay, reverse-phase HPLC and mass spectrometry. It is filed as biochemical. The following applies: 0.5 mM GTP, 10 mM MnCl2, pH 8.0, 25°C.

In the next assay the target is T2, full-length XC_0249 (Xanthomonas campestris, UniProt Q8PDU6).
T2 construct: gene XCC0239; full-length purified protein; cNMP domain plus GGDEF domain
T2 sequence (Q8PDU6 entry or part of it): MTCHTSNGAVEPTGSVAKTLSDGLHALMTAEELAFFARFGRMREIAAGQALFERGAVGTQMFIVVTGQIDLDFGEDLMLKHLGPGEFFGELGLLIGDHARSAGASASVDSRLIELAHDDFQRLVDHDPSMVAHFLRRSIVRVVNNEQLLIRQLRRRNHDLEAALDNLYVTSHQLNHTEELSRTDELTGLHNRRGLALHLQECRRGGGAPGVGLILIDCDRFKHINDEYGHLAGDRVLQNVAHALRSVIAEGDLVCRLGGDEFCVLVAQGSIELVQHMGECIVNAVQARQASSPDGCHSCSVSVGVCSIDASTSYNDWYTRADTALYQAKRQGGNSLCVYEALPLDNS
Description: diguanylate cyclase assay, HPLC and mass spectrometry. The assay is classed as biochemical. The following applies: 150 μM GTP, 10 mM MgCl2, pH 7.6, 60 min.

Assay [2] concerns the target cNMP domain of XC_0249 (Xanthomonas campestris pv. campestris (Xcc) strain 8004). As to the kind of experiment: crystal structure; XC_0249 cNMP domain with cyclic GMP bound, resolution 2.2 Å.

This note sets out measurements from PMC3770947, “A cyclic GMP-dependent signalling pathway regulates bacterial phytopathogenesis” (The EMBO Journal, 2013).

T1 sequence (Q8PDU5 entry or part of it): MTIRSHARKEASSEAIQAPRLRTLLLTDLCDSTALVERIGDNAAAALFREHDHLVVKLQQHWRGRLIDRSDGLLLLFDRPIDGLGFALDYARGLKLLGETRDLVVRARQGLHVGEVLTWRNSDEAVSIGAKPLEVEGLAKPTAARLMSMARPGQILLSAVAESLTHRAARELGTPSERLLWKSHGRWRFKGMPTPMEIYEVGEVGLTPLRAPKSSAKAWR

For `Nc1nc2c(ncn2[C@@H]2O[C@H](COP(=O)(O)OP(=O)(O)OP(=O)(O)O)[C@@H](O)[C@H]2O)c(=O)[nH]1` [GTP], the “guanylyl cyclase assay, reverse-phase HPLC and mass spectrometry” value in assay [1] is reported as “This protein had guanylate cyclase activity, converting GTP to cyclic GMP”. `Nc1nc2c(ncn2[C@@H]2O[C@@H]3COP(=O)(O)O[C@H]3[C@H]2O)c(=O)[nH]1` [cyclic GMP]: the “guanylyl cyclase assay, reverse-phase HPLC and mass spectrometry” value in assay [1] was “This protein had guanylate cyclase activity, converting GTP to cyclic GMP”. Take `Nc1nc2c(ncn2[C@@H]2O[C@@H]3COP(=O)(O)O[C@H]4[C@@H](O)[C@H](n5cnc6c(=O)[nH]c(N)nc65)O[C@@H]4COP(=O)(O)O[C@H]3[C@H]2O)c(=O)[nH]1` [cyclic di-GMP]: the “diguanylate cyclase assay, HPLC and mass spectrometry” value on full-length XC_0249 was “The identity of cyclic di-GMP as a product was confirmed by mass spectrometry”. Regarding “cNMP domain of XC_0249 (domain or fragment)”, in assay [2], the stoichiometry N amounted to 2.
